Patent US9956205B2, “Polymorphic forms of 2-(5-bromo-4-(4-cyclopropylnaphthalen-1-yl)-4H-1,2,4-triazol-3-ylthio)acetic acid and uses thereof” (Ardea Biosciences, Inc., priority 2010, dated 2018)
Converted amounts (≈) assume the structure as drawn.

Columns and labels:
Type in all cases: physicochemical
[1] = Solid held in equilibrium with its saturated solvent solution at 60° C.; details: saturated acetone solution, 6 days
[2] = Gravimetric vapor sorption (GVS) study; details: at high humidity
Description: FIG. 12 illustrates a GVS study of form 1 and form 2. […] This property of decreased hygroscopicity greatly aids in the preparation of solid pharmaceutical dosage forms.

[3] = Solubility in acetate buffer (25 mM, pH 5), assayed by HPLC; details: 25 °C, pH 5, aqueous buffer, thermodynamic from solid; for solubility at 5 day: Day 5; for solubility at 7 day: Day 7
Description: (§1) Form 1 (˜25 mg) and acetate buffer (25 mM, pH 5, 4 mL), prepared with and without sodium chloride (ionic strength adjusted to=0.1M), were placed in a glass vial which was sealed and placed on a laboratory rotator in a 25° C. incubator. After 1, 5, and 7 days the samples were filtered and assayed by HPLC.
as §1, with “Form 2” for “Form 1”

[4] = Drug substance stability of packaged solid; details: 1 month, double LDPE bags inside HDPE container
Description: Form 2 of 2-(5-bromo-4-(4-cyclopropylnaphthalen-1-yl)-4H-1,2,4-triazol-3-ylthio)acetate was tested under various conditions to determine drug substance stability. […] Packaging was in a double low density polyethylene plastic bags inside a HDPE container.

SMILES	outcome of equilibration with saturated solution [1]	adsorption (hygroscopicity) by GVS [2] [% w/w]	solubility at 5 day ([3]; pH 5, NaCl (I = 0.1)) [µg/mL]	solubility at 7 day ([3]; pH 5, NaCl (I = 0.1)) [µg/mL]	solubility at 1 day ([3]; pH 5, No NaCl, Day 1) [µg/mL]	solubility at 5 day ([3]; pH 5, No NaCl) [µg/mL]	solubility at 7 day ([3]; pH 5, No NaCl) [µg/mL]	degradation of packaged drug substance ([4]; 25° C.-60% RH)	degradation of packaged drug substance ([4]; 40° C.-75% RH)
O=C(O)CSc1nnc(Br)n1-c1ccc(C2CC2)c2ccccc12 [Form 1, 2-(5-bromo-4-(4-cyclopropylnaphthalen-1-yl)-4H-1,2,4-triazol-3-ylthio)acetic acid]	decomposition	< 0.2	257 (≈ 635 µM)	304 (≈ 753 µM)	265 (≈ 656 µM)	213 (≈ 528 µM)	157 (≈ 388 µM)	–	–
O=C(O)CSc1nnc(Br)n1-c1ccc(C2CC2)c2ccccc12 [Form 2, 2-(5-bromo-4-(4-cyclopropylnaphthalen-1-yl)-4H-1,2,4-triazol-3-ylthio)acetic acid]	–	< 0.1	–	–	–	–	–	No degradation	No degradation
